Data: publication PMC6286348, “Inhibitor binding mode and allosteric regulation of Na^+-glucose symporters” (Nature Communications, 2018)
Positions count from the first letter of the chain named.

Assays:
hSGLT1 wild-type = target: T1, hSGLT1 wild-type (Homo sapiens, UniProt P13866); assay: SGLT current measurement (two electrode voltage clamp) in oocytes, hSGLT1 wild-type; type: cell-based; conditions: apparent affinity from αMDG current vs external Na^+, 10 mM αMDG, 22 °C
T1 construct: expressed in transfected cells; host or cells: Xenopus laevis oocytes injected with cRNA
T1 sequence (P13866 1-664): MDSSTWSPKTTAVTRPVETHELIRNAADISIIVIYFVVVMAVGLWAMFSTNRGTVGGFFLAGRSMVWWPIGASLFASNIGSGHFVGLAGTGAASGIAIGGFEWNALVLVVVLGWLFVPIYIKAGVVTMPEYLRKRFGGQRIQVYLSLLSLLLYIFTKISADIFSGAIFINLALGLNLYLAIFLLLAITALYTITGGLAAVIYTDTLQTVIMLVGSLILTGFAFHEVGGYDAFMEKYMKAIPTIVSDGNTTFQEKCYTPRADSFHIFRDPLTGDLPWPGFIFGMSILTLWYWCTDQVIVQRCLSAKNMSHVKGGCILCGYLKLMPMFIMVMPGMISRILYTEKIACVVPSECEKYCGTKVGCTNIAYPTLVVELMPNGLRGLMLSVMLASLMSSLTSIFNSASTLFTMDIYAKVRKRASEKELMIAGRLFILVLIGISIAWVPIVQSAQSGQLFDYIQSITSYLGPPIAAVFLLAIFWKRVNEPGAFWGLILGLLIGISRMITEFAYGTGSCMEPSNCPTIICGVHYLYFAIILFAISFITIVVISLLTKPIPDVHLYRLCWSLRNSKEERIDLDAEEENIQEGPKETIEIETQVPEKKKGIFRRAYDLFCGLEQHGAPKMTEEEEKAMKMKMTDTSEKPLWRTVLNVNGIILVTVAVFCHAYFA
Experimental: (§1) Xenopus laevis (Nasco) oocytes (V–VI) were prepared as previously described[20] and injected with 50 nl of cRNA (1 μg/μl). […] Briefly, oocytes were incubated for 30 min in the presence of 50 μM αMDG (5 μM [^14C]αMDG) in a buffer containing (in mM) 100 NaCl, 2 KCl, 1 MgCl2, 1 CaCl2, and 10 N-(2-hydroxyethyl)piperazine-N′-(2-ethanesulfonic acid) (HEPES)/Tris (pH 7.5). After incubation, oocytes were rinsed thoroughly with ice-cold buffer containing (mM) 100 choline Cl^–, 2 KCl, 1 MgCl2, 1 CaCl2, and 10 HEPES/Tris (pH 7.5), individually lysed with 5% sodium dodecyl sulfate, and assayed for radioactivity.
(§2) Injected oocytes were incubated at 18 °C, and after 3–4 days, two electrode voltage clamp experiments were performed as previously described. Briefly, SGLT inward glucose currents were measured as a function of the external Na^+ (0–100 mM NaCl), sugar (0–100 mM αMDG), and inhibitors (0.001–100 μM). Steady-state and hSGLT1 capacitive currents were recorded using voltage steps from a holding voltage, Vh of −60 mV, to voltages in the range of −180 to +50 mV in 20 mV increments. The apparent affinity of αMDG, K0.5, was estimated from plots of the inward current as a function of the external αMDG concentration. […] The Na^+-to-αMDG stoichiometry was determined from the reversal potential measurements using the Gibbs free energy as previously described. […]

hSGLT1 T395A = target: T2, hSGLT1 T395A (Homo sapiens, UniProt P13866, T395A); assay: SGLT current measurement in oocytes, hSGLT1 T395A; type: cell-based; conditions: 22 °C
T2 construct: expressed in transfected cells; host or cells: Xenopus laevis oocytes injected with cRNA
T2 sequence (P13866 1-664 T395A): T1 sequence (P13866 1-664) with T395A
Experimental: as §1, §2

hSGLT1 F453C = test system: hSGLT1 F453C; set-up: method as in PMID 22159082; conditions: oocytes, 22 °C; cited from earlier work

Compound: [Na+] [Na^+]
- K0.5 Na^+ (hSGLT1 wild-type): 36 ± 1 mM
- K0.5 Na^+ (hSGLT1 T395A): 104 ± 50 mM
- K0.5 Na^+ (hSGLT1 F453C): 21 ± 1[20] mM
